For one compound, EC50 results are on record in US10835500B2, “Medicament for accelerated wound healing” (Symrise AG, priority 2014, dated 2020).

The assay concerns the target T1, OR2AT4 (human olfactory receptor, endogenously expressed in HaCaT cells) (Homo sapiens, UniProt A6NND4).
T1 construct: OR2AT4, endogenous, HaCaT cells, calcium; endogenous in cells; host or cells: HaCaT cells
T1 sequence (A6NND4 1-320): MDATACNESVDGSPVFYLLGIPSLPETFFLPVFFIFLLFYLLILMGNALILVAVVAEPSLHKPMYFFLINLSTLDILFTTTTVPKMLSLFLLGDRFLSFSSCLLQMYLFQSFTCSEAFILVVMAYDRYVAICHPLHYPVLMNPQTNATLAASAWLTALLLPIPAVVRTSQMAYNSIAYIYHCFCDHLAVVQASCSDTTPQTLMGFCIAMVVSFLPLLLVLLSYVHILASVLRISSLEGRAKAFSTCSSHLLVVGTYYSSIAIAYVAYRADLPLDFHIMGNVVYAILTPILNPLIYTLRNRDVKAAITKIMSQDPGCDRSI
In words: Calcium imaging, dose-dependent activation of HaCaT cells by Sandalore, fourth application (FIG. 9D). As to conditions: HaCaT keratinocytes, endogenous OR2AT4, intracellular calcium signal amplitude, 0.0125-10 mM. It counts as cell-based. An excerpt: A method established at the Department of Cell Physiology of Ruhr University Bochum for deorphanization studies is calcium imaging, in which activation of an OR by an odorant is visualized by a change in the intracellular calcium concentration of transfected cells using a fluorescent dye [cf. Wetzel et al. in: J. Neurosci. 19, pp. 7426-7433 (1999); Spehr et al. in: Science 299, pp. 2054-2058 (2003); Neuhaus et al. in: J. Biol. Chem. 284, pp. 16218-16225 (2009)]. In this method, the Hana3A cells are briefly (20 s) stimulated with an odorant and selected for odorant screenings of high concentrations (up to 1 mM) in order to confirm activation of ORs weakly expressed in Hana3A cells.
For detection of OR2AT4 at the transcript level, RNA of various skin cell types and skin biopsy specimens was isolated, and RT-PCR was carried out. Transcripts of OR2AT4 were detected in human primary keratinocytes of various differentiation stages, HaCaT cells, and human skin biopsy specimens (full thickness skin) (FIG. 6). […] In contrast, no expression of the receptor was detected in adipocytes or fibroblasts (FIG. 6, center). […]
Effect of the OR2AT4 ligand Sandalore® on intracellular calcium concentration of cultivated keratinocytes. […] Right: Quantitative evaluation of calcium signals in 4-time application of Sandalore® (500 μM). […]
(Calcium assays in cells follow changes in intracellular calcium, usually with a dye or a luminescent sensor.)

On to `CC1=CCC(CCC(C)C(C)O)C1(C)C` (stereo not shown) [Sandalore], for which the EC50 (commonly the concentration needed to bring the measured effect to its halfway point) turned out to be 110 µM.
